Reference: US12258317B2, “Isoquinolinone compound for inhibiting ssao/vap-1, and use thereof” (SUNSHINE LAKE PHARMA CO., LTD., priority 2019, dated 2025)
Counter-ions that a name gives are not always drawn.

Assays:
Human recombinant DAO = Human recombinant DAO (Homo sapiens (Human), UniProt P19801); experiment: Determination of selective inhibition of DAO (diamine oxidase) (Amplex Red, 1,4-diaminobutane substrate); format: biochemical; details: 30 min pre-incubation at 37° C.
Excerpt: 2. Determination of Selective Inhibition of DAO (Diamine Oxidase)
Test purpose: The following method is used to determine the selective inhibitory activity of the compound of the present invention on DAO.
• Human recombinant DAO (Recombinant Human ABP-1/DAO) was purchased from R&D, Cat. No. 8298-AO; • Amplex® Red Hydrogen PeroxidePeroxidase Assay Kit was purchased from Invitrogen, Cat. No. A22188; • 1,4-Diaminobutane dihydrochloride was purchased from Aladdin, Cat. No. D106194-25G. Test Method:
The test compound was dissolved in DMSO and diluted 5 times to a total of 6 concentrations. In a 384-well plate, 24 μL of human recombinant DAO (1 μg/mL) was added into each well. 1 μL of test compounds at different concentrations were added to each well containing human recombinant DAO, and the plate was incubated at 37° C. for 30 min. After incubating for 30 min, 25 μL of Amplex® Red Hydrogen Peroxide Peroxidase Assay Kit (containing 100 μM Amplex® Red and 0.2 U/ml HRP) containing 1 M 1,4-butanediamine dihydrochloride was added into the corresponding wells, and the plate was incubated in the dark at 37° C. for 30 min. After 30 min, PHERAstar FSX microplate reader of BMG LABTECH was used to read the fluorescence value (RFU) under excitation at 540 nm and emission at 580 nm. The graph was drawn using Graph Pad Prism 5 software to calculate the IC50 value.

[1] = molecular target: human recombinant SSAO/VAP-1 (Homo sapiens (Human), UniProt Q16853); experiment: Determination of inhibitory activity of human recombinant SSAO/VAP-1 (Amplex Red, benzylamine substrate); format: biochemical; details: 30 min pre-incubation at room temperature; read-out: SSAO/VAP-1 (Human Recombinant Protein) IC50
Sequence of human recombinant SSAO/VAP-1 (Q16853 whole entry): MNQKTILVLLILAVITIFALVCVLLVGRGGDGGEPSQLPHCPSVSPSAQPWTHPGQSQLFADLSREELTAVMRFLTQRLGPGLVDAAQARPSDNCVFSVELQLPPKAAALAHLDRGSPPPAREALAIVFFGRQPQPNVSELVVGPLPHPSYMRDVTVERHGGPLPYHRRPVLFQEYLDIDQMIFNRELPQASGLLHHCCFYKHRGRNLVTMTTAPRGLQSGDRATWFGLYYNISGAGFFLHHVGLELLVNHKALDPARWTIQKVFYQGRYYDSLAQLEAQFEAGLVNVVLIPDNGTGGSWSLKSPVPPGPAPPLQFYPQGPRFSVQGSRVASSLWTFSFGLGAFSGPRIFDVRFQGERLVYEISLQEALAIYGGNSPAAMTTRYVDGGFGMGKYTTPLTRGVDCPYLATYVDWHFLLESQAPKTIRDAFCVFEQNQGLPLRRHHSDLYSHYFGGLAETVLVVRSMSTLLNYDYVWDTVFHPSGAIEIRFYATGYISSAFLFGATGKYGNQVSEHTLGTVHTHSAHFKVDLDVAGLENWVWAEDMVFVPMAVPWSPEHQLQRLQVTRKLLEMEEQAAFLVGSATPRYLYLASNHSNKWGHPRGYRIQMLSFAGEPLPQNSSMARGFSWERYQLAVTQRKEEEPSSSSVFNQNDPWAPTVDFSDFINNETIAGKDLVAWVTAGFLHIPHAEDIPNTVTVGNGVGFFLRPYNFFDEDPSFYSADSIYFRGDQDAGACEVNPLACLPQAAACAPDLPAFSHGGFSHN
Excerpt: 1. Determination of Inhibitory Activity of Human Recombinant SSAO/VAP-1
Test purpose: The following method is used to determine the inhibitory activity of the compounds in the examples of the present invention on human recombinant SSAO/VAP-1.
• Human recombinant SSAO/VAP-1 (VAP-1, human) was purchased from Sigma, Cat. No. SRP6241; • Amplex® Red Monoamine Oxidase Assay Kit was purchased from Invitrogen, Cat. No. A12214; • 384-well plate was purchased from Corning, Cat. No. 6005174; • Amplex® Red Hydrogen PeroxidePeroxidase Assay Kit was purchased from Invitrogen, Cat. No. A22188.
Benzylamine hydrochloride was purchased from Sigma, Cat. No. B5136-25G; • DMSO (Dimethyl Sulfoxide) was purchased from Sigma, Cat. No. D2650-100ML; Test Method:
The test compound was dissolved in DMSO and diluted 4 times to a total of 10 concentrations. In a 384-well plate, 25 μL of human recombinant SSAO/VAP-1 (1.6 μg/mL) was added into each well. 100 nL of test compounds at different concentrations were added to each well containing human recombinant SSAO/VAP-1, and the plate was incubated at room temperature for 30 min. After incubating for 30 min, 25 μL of Amplex® Red Monoamine Oxidase Assay Kit (a reaction mixture containing 200 μM Amplex Red reagent, 1 U/mL HRP and 1 mM benzylamine hydrochloride) was added into the corresponding wells, and the plate was incubated at room temperature in the dark for 60 min. After 60 min, PerkinElmer's Envision was used to read the fluorescence value (RFU) under excitation at 530-560 nm and emission at 590 nm. The graph was drawn using Graph Pad Prism 5 software to calculate the IC50 value.

Sequence of Human recombinant DAO (P19801 20-751): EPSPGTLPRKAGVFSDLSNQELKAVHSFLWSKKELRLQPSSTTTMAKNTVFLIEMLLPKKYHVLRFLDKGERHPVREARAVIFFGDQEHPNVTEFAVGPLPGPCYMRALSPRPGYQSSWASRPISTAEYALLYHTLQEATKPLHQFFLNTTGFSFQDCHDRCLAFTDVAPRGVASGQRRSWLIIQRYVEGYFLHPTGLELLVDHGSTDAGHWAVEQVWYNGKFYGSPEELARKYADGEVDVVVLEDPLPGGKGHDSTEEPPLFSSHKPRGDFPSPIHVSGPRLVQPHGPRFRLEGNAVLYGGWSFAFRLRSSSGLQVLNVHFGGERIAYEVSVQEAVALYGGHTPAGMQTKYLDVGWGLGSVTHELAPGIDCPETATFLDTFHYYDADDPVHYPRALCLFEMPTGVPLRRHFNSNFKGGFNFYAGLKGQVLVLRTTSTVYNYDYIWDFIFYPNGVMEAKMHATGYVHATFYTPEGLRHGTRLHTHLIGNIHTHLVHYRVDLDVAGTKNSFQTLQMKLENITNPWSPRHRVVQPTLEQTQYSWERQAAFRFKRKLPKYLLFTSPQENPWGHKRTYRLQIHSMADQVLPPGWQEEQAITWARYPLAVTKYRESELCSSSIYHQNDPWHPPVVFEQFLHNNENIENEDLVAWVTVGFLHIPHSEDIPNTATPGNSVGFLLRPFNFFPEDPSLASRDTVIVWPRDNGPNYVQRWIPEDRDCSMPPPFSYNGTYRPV

Row | SMILES | IC50 (Human recombinant DAO) [nM] | IC50 [1] [nM]
1 | CNC(=O)CN1CCc2cc(OC/C(=C\F)CN)ccc2C1=O [Example 4, 2-[6-[(Z)-2-(aminomethyl)-3-fluoro-allyloxy]-1-oxo-3,4-dihydroisoquinolin-2-yl]-N-methyl-acetamide hydrochloride] |  | 3.7
2 | CCNC(=O)CN1CCc2cc(OC/C(=C\F)CN)ccc2C1=O [Example 6, 2-[6-[(Z)-2-(aminomethyl)-3-fluoro-allyloxy]-1-oxo-3,4-dihydroisoquinolin-2-yl]-N-ethyl-acetamide hydrochloride] |  | 4.12
3 | CN(C)C(=O)CN1CCc2cc(OC/C(=C/F)CN)ccc2C1=O [Example 7, 2-[6-[(E)-2-(aminomethyl)-3-fluoro-allyloxy]-1-oxo-3,4-dihydroisoquinolin-2-yl]-N, N-dimethyl-acetamide hydrochloride] | > 1000 | 11.1
4 | CN(C)C(=O)CN1CCc2cc(OC/C(=C\F)CN)ccc2C1=O [Example 8, 2-[6-[(Z)-2-(aminomethyl)-3-fluoro-allyloxy]-1-oxo-3,4-dihydroisoquinolin-2-yl]-N,N-dimethyl-acetamide hydrochloride] |  | 1
5 | CC(C)NC(=O)CN1CCc2cc(OC/C(=C/F)CN)ccc2C1=O [Example 9, 2-[6-[(E)-2-(aminomethyl)-3-fluoro-allyloxy]-1-oxo-3,4-dihydroisoquinolin-2-yl]-N-isopropyl-acetamide hydrochloride] | > 1000 | 
6 | CS(=O)(=O)CCNC(=O)CN1CCc2cc(OC/C(=C/F)CN)ccc2C1=O [Example 18, 2-[6-[(E)-2-(aminomethyl)-3-fluoro-allyloxy]-1-oxo-3,4-dihydroisoquinolin-2-yl]-N-(2-methanesulfonylethyl)acetamide hydrochloride] | > 1000 | 8.66
7 | NC/C(=C\F)COc1ccc2c(c1)CCN(CC(=O)NC1CC(F)(F)C1)C2=O [Example 19, 2-[6-[(E)-2-(aminomethyl)-3-fluoro-allyloxy]-1-oxo-3,4-dihydroisoquinolin-2-yl]-N-(3,3-difluorocyclobutyl)-acetamide hydrochloride] | > 1000 | 4.01
8 | CCCNC(=O)CN1CCc2cc(OC/C(=C/F)CN)ccc2C1=O [Example 21, 2-[6-[(E)-2-(aminomethyl)-3-fluoro-allyloxy]-1-oxo-3,4-dihydroisoquinolin-2-yl]-N-propyl-acetamide hydrochloride] | > 1000 | 11.8
9 | CCOP(=O)(CCN1CCc2cc(OC/C(=C/F)CN)ccc2C1=O)OCC [Example 24, 6-[(E)-2-(aminomethyl)-3-fluoro-allyloxy]-2-(2-diethoxyphosphorylethyl)-3,4-dihydroisoquinoline-1-one hydrochloride] | > 100 | 3.67
10 | CS(=O)(=O)CCN1CCc2cc(OC/C(=C/F)CN)ccc2C1=O [Example 25, 6-[(E)-2-(aminomethyl)-3-fluoro-allyloxy]-2-(2-methylsulfonylethyl)-3,4-dihydroisoquinoline-1-one hydrochloride] | > 100 | 3.38

The next lines start with the values.

Row | IC50 (Human recombinant DAO) [nM] | IC50 [1] [nM] | SMILES
11 | > 100 |  | CNC(=O)CN1CCc2cc(OC/C(=C/F)CN)ccc2C1=O [Example 3, 2-[6-[(E)-2-(aminomethyl)-3-fluoro-allyloxy]-1-oxo-3,4-dihydroisoquinolin-2-yl]-N-methyl-acetamide hydrochloride]
12 | > 100 |  | CCNC(=O)CN1CCc2cc(OC/C(=C/F)CN)ccc2C1=O [Example 5, 2-[6-[(E)-2-(aminomethyl)-3-fluoro-allyloxy]-1-oxo-3,4-dihydroisoquinolin-2-yl]-N-ethyl-acetamide hydrochloride]
13 | > 100 |  | CC(C)CNC(=O)CN1CCc2cc(OC/C(=C/F)CN)ccc2C1=O [Example 11, 2-[6-[(E)-2-(aminomethyl)-3-fluoro-allyloxy]-1-oxo-3,4-dihydroisoquinolin-2-yl]-N-isobutyl-acetamide hydrochloride]
14 | > 100 |  | NC/C(=C\F)COc1ccc2c(c1)CCN(CC(=O)NCC(F)(F)F)C2=O [Example 13, 2-[6-[(E)-2-(aminomethyl)-3-fluoro-allyloxy]-1-oxo-3,4-dihydroisoquinolin-2-yl]-N-(2,2,2-trifluoroethyl)acetamide hydrochloride]
15 | > 100 |  | CC(C)(C)NC(=O)CN1CCc2cc(OC/C(=C/F)CN)ccc2C1=O [Example 15, 2-[6-[(E)-2-(aminomethyl)-3-fluoro-allyloxy]-1-oxo-3,4-dihydroisoquinolin-2-yl]-N-tert-butyl-acetamide hydrochloride]
16 | > 100 |  | NC/C(=C\F)COc1ccc2c(c1)CCN(CC(=O)NC1CC1)C2=O [Example 16, 2-[6-[(E)-2-(aminomethyl)-3-fluoro-allyloxy]-1-oxo-3,4-dihydroisoquinolin-2-yl]-N-cyclopropyl-acetamide hydrochloride]
17 | > 100 |  | NC/C(=C\F)COc1ccc2c(c1)CCN(CC(=O)NC1CCC1)C2=O [Example 17, 2-[6-[(E)-2-(aminomethyl)-3-fluoro-allyloxy]-1-oxo-3,4-dihydroisoquinolin-2-yl]-N-cyclobutyl-acetamide hydrochloride]
18 | > 100 |  | NC/C(=C\F)COc1ccc2c(c1)CCN(CC(=O)N1CCCC1)C2=O [Example 20, 6-[(E)-2-(aminomethyl)-3-fluoro-allyloxy]-2-(2-oxo-2-pyrrolidin-1-yl-ethyl)-3,4-dihydroisoquinoline-1-one hydrochloride]
19 | > 100 |  | COCCNC(=O)CN1CCc2cc(OC/C(=C/F)CN)ccc2C1=O [Example 22, 2-[6-[(E)-2-(aminomethyl)-3-fluoro-allyloxy]-1-oxo-3,4-dihydroisoquinolin-2-yl]-N-(2-methoxyethyl)acetamide hydrochloride]
